Measurements published in ChEMBL document CHEMBL1201862, “PubChem BioAssay data set” (2004).
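Dose response: 5 concentrations. Exposure: 48 h. Format: 96-well plates. Endpoint: linear interpolation; highest concentration if not reached. The concentration for 50% growth inhibition is given as GI50.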 Calls of active or inactive are those of the source. No stated cut-off is given here; in the data, active = GI50 up to about 1.1 µM and inactive = higher.

What was measured:
Test in all cases: NCI tumour cell line growth inhibition, 48 h
[1] = test system: RPMI-8226
[2] = test system: SNB-19
[3] = test system: BT-549
[4] = test system: Hs-578T
[5] = test system: SR
[6] = test system: M14
[7] = test system: LOX IMVI
[8] = test system: COLO 205
[9] = test system: NCI-H23
[10] = test system: T47D
[11] = test system: SW-620
[12] = test system: NCI-H522
[13] = test system: MOLT-4
[14] = test system: MDA-MB-435
[15] = test system: MDA-MB-231
[16] = test system: UO-31
[17] = test system: DU-145
[18] = test system: KM12
[19] = test system: NCI-H460
[20] = test system: 786-0
[21] = test system: UACC-257
[22] = test system: OVCAR-4
[23] = test system: OVCAR-5
[24] = test system: TK-10
[25] = test system: ACHN
[26] = test system: HT-29
[27] = test system: OVCAR-8
[28] = test system: K562
[29] = test system: SK-MEL-2
[30] = test system: PC-3
[31] = test system: IGROV-1
[32] = test system: MCF7
[33] = test system: OVCAR-3
[34] = test system: CAKI-1
[35] = test system: SF-539
[36] = test system: RXF 393
[37] = test system: EKVX
[38] = test system: SK-OV-3
[39] = test system: HOP-92
[40] = test system: A549
[41] = test system: SK-MEL-28
[42] = test system: HCT-116
[43] = test system: CCRF-CEM
[44] = test system: UACC-62
[45] = test system: SK-MEL-5
[46] = test system: SF-268
[47] = test system: NCI-H226
[48] = test system: SF-295
[49] = test system: HCT-15
[50] = test system: HCC 2998
[51] = test system: HL-60
[52] = test system: HOP-62
[53] = test system: U-251
[54] = test system: SN12C
[55] = test system: MDA-N
[56] = test system: NCI/ADR-RES
[57] = test system: A498
[58] = test system: SNB-75
[59] = test system: Malme-3M

For `CC(=O)c1sc2n(C)c(=O)c3ccccc3[n+]2c1C`, the GI50 [1] was > 100 µM (inactive), the GI50 [2] was > 100 µM (inactive) and the GI50 [3] was > 100 µM (inactive). The GI50 [4] was > 100 µM (inactive), the GI50 [5] was > 100 µM (inactive) and the GI50 [6] was > 100 µM (inactive). The GI50 [7] was > 100 µM (inactive), the GI50 [8] was > 100 µM (inactive) and the GI50 [9] was > 100 µM (inactive). For the same compound, the GI50 [10] was > 100 µM (inactive), the GI50 [11] was > 100 µM (inactive) and the GI50 [12] was > 100 µM (inactive). For the same compound, the GI50 [13] was > 100 µM (inactive), the GI50 [14] was > 100 µM (inactive) and the GI50 [15] was > 100 µM (inactive). For the same compound, the GI50 [16] was > 100 µM (inactive), the GI50 [17] was > 100 µM (inactive) and the GI50 [18] was > 100 µM (inactive). For the same compound, the GI50 [19] was > 100 µM (inactive), the GI50 [20] was > 100 µM (inactive) and the GI50 [21] was > 100 µM (inactive). The GI50 [22] was > 100 µM (inactive), the GI50 [23] was > 100 µM (inactive) and the GI50 [24] was > 100 µM (inactive). The GI50 [25] was > 100 µM (inactive), the GI50 [26] was > 100 µM (inactive) and the GI50 [27] was > 100 µM (inactive). For the same compound, the GI50 [28] was > 100 µM (inactive), the GI50 [29] was > 100 µM (inactive) and the GI50 [30] was > 100 µM (inactive). For the same compound, the GI50 [31] was > 100 µM (inactive), the GI50 [32] was > 100 µM (inactive) and the GI50 [33] was > 100 µM (inactive). For the same compound, the GI50 [34] was > 100 µM (inactive), the GI50 [35] was > 100 µM (inactive) and the GI50 [36] was > 100 µM (inactive). The GI50 [37] was > 100 µM (inactive), the GI50 [38] was > 100 µM (inactive) and the GI50 [39] was 46.5 µM (inactive). For the same compound, the GI50 [40] was > 100 µM (inactive), the GI50 [41] was > 100 µM (inactive) and the GI50 [42] was > 100 µM (inactive). For the same compound, the GI50 [43] was > 100 µM (inactive), the GI50 [44] was > 100 µM (inactive) and the GI50 [45] was > 100 µM (inactive). The GI50 [46] was > 100 µM (inactive), the GI50 [47] was > 100 µM (inactive) and the GI50 [48] was > 100 µM (inactive). For the same compound, the GI50 [49] was over 100 µM, the GI50 [50] was > 100 µM (inactive) and the GI50 [51] was > 100 µM (inactive). The GI50 [52] was > 100 µM (inactive), the GI50 [53] was > 100 µM (inactive) and the GI50 [54] was > 100 µM (inactive). For the same compound, the GI50 [55] was > 100 µM (inactive) and the GI50 [56] was > 100 µM (inactive).
`COc1c(O)cc2ccnc3c2c1N(C)C=C3` was tested, and the GI50 [57] was > 100 µM (inactive), the GI50 [1] was > 100 µM (inactive) and the GI50 [2] was > 100 µM (inactive). For the same compound, the GI50 [3] was > 100 µM (inactive), the GI50 [4] was > 100 µM (inactive) and the GI50 [5] was 10.1 µM (inactive). For the same compound, the GI50 [6] was > 100 µM (inactive), the GI50 [7] was > 100 µM (inactive) and the GI50 [8] was 94.6 µM (inactive). The GI50 [9] was > 100 µM (inactive), the GI50 [10] was > 100 µM (inactive) and the GI50 [11] was 86.1 µM (inactive). For the same compound, the GI50 [13] was 91.6 µM (inactive), the GI50 [14] was > 100 µM (inactive) and the GI50 [58] was > 100 µM (inactive). The GI50 [15] was > 100 µM (inactive), the GI50 [16] was 39.4 µM (inactive) and the GI50 [17] was > 100 µM (inactive). For the same compound, the GI50 [18] was > 100 µM (inactive), the GI50 [19] was 64.6 µM (inactive) and the GI50 [20] was 83.8 µM (inactive). The GI50 [21] was > 100 µM (inactive), the GI50 [22] was > 100 µM (inactive) and the GI50 [23] was > 100 µM (inactive). For the same compound, the GI50 [24] was > 100 µM (inactive), the GI50 [25] was 56.1 µM (inactive) and the GI50 [27] was 95.1 µM (inactive). For the same compound, the GI50 [28] was > 100 µM (inactive), the GI50 [29] was > 100 µM (inactive) and the GI50 [30] was > 100 µM (inactive). The GI50 [31] was > 100 µM (inactive), the GI50 [32] was > 100 µM (inactive) and the GI50 [33] was > 100 µM (inactive). The GI50 [34] was > 100 µM (inactive), the GI50 [36] was > 100 µM (inactive) and the GI50 [37] was > 100 µM (inactive). For the same compound, the GI50 [38] was > 100 µM (inactive), the GI50 [40] was > 100 µM (inactive) and the GI50 [41] was > 100 µM (inactive). The GI50 [42] was 67.3 µM (inactive), the GI50 [44] was > 100 µM (inactive) and the GI50 [46] was > 100 µM (inactive). The GI50 [47] was > 100 µM (inactive), the GI50 [48] was 55 µM (inactive) and the GI50 [49] was over 100 µM. The GI50 [50] was > 100 µM (inactive), the GI50 [52] was > 100 µM (inactive) and the GI50 [53] was > 100 µM (inactive). For the same compound, the GI50 [54] was 67.6 µM (inactive), the GI50 [55] was > 100 µM (inactive) and the GI50 [56] was > 100 µM (inactive).
For `CCOC(=O)C1C[C@H]2CO[C@H](c3ccccc3)N2C1=O` (some centres not stated), the GI50 [1] was > 100 µM (inactive), the GI50 [2] was > 100 µM (inactive) and the GI50 [3] was > 100 µM (inactive). The GI50 [4] was > 100 µM (inactive), the GI50 [5] was > 100 µM (inactive) and the GI50 [6] was > 100 µM (inactive). For the same compound, the GI50 [7] was > 100 µM (inactive), the GI50 [8] was > 100 µM (inactive) and the GI50 [9] was > 100 µM (inactive). The GI50 [10] was > 100 µM (inactive), the GI50 [11] was > 100 µM (inactive) and the GI50 [12] was > 100 µM (inactive). The GI50 [13] was > 100 µM (inactive), the GI50 [14] was > 100 µM (inactive) and the GI50 [59] was > 100 µM (inactive). For the same compound, the GI50 [58] was > 100 µM (inactive), the GI50 [15] was > 100 µM (inactive) and the GI50 [16] was > 100 µM (inactive). For the same compound, the GI50 [17] was > 100 µM (inactive), the GI50 [18] was > 100 µM (inactive) and the GI50 [19] was > 100 µM (inactive). The GI50 [20] was > 100 µM (inactive), the GI50 [21] was > 100 µM (inactive) and the GI50 [22] was > 100 µM (inactive). For the same compound, the GI50 [23] was > 100 µM (inactive), the GI50 [24] was > 100 µM (inactive) and the GI50 [25] was > 100 µM (inactive). The GI50 [26] was > 100 µM (inactive), the GI50 [27] was > 100 µM (inactive) and the GI50 [28] was > 100 µM (inactive). The GI50 [29] was > 100 µM (inactive), the GI50 [30] was > 100 µM (inactive) and the GI50 [31] was > 100 µM (inactive). For the same compound, the GI50 [32] was > 100 µM (inactive), the GI50 [33] was > 100 µM (inactive) and the GI50 [34] was > 100 µM (inactive). For the same compound, the GI50 [35] was > 100 µM (inactive), the GI50 [36] was > 100 µM (inactive) and the GI50 [37] was > 100 µM (inactive). For the same compound, the GI50 [39] was > 100 µM (inactive), the GI50 [40] was > 100 µM (inactive) and the GI50 [41] was > 100 µM (inactive). The GI50 [42] was > 100 µM (inactive), the GI50 [43] was > 100 µM (inactive) and the GI50 [44] was > 100 µM (inactive). The GI50 [45] was > 100 µM (inactive), the GI50 [46] was > 100 µM (inactive) and the GI50 [47] was > 100 µM (inactive). For the same compound, the GI50 [48] was > 100 µM (inactive), the GI50 [49] was over 100 µM and the GI50 [50] was 73.8 µM (inactive). For the same compound, the GI50 [53] was > 100 µM (inactive), the GI50 [54] was > 100 µM (inactive) and the GI50 [55] was > 100 µM (inactive). The GI50 [56] was > 100 µM (inactive).
